Experiments:
YKL-5-124 [1] = compound: T1, C=CC(=O)Nc1ccc(C(=O)Nc2[nH]nc3c2CN(C(=O)N[C@H](CN(C)C)c2ccccc2)C3(C)C)cc1 [YKL-5-124]
Bleomycin = compound: CC1=C(N=C(N=C1N)[C@H](CC(=O)N)NC[C@@H](C(=O)N)N)C(=O)N[C@@H]([C@H](C2=CN=CN2)OC3C(C(C(C(O3)CO)O)O)OC4C(C(C(C(O4)CO)O)OC(=O)N)O)C(=O)N[C@H](C)[C@H]([C@H](C)C(=O)N[C@@H]([C@@H](C)O)C(=O)NCCC5=NC(=CS5)C6=NC(=CS6)C(=O)NCCC[S+](C)C)O [Bleomycin]; conditions: main component drawn
FMF-03-145-1 = compound: CCC(=O)Nc1ccc(C(=O)Nc2ccc(Nc3ncc4c(n3)N(C)c3ccc(C)cc3C(=O)N4C)cc2)cc1 [FMF-03-145-1]
Topotecan = compound: CC[C@@]1(O)C(=O)OCc2c1cc1n(c2=O)Cc2cc3c(CN(C)C)c(O)ccc3nc2-1 [Topotecan]
Etoposide = compound: COc1cc([C@@H]2c3cc4c(cc3[C@@H](O[C@@H]3O[C@@H]5CO[C@@H](C)O[C@H]5[C@H](O)[C@H]3O)[C@H]3COC(=O)[C@H]23)OCO4)cc(OC)c1O [Etoposide]
[2] = compound: COc1cccc(OCCCN)c1-c1cc(Nc2cnc(C#N)cn2)n[nH]1
Cisplatin = compound: N.N.Cl[Pt]Cl [Cisplatin]
YKL-5-124 [3] = compound: T1, YKL-5-124; assay: increase in dead-cell fraction, 72 h; higher = more death;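 further: breast cancer cell lines in 384-well plates, stained with Hoechst plus LIVE/DEAD far red dye and imaged, cells above an LDR intensity threshold counted dead, Hoechst-negative corpses included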
THZ531 = compound: CN(C)C/C=C/C(=O)Nc1ccc(C(=O)N2CCC[C@@H](Nc3ncc(Cl)c(-c4c[nH]c5ccccc45)n3)C2)cc1 [THZ531]; assay: as above
Everolimus = compound: CO[C@H]1C[C@@H]2CC[C@@H](C)[C@@](O)(O2)C(=O)C(=O)N2CCCC[C@H]2C(=O)O[C@H]([C@H](C)C[C@@H]2CC[C@@H](OCCO)[C@H](OC)C2)CC(=O)[C@H](C)/C=C(\C)[C@@H](O)[C@@H](OC)C(=O)[C@H](C)C[C@H](C)/C=C/C=C/C=C/1C [Everolimus]
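Wherever GR50, 72 h is given: breast cancer and non-malignant breast epithelial cell lines, Deep Dye Drop or Dye Drop imaging, nine half-log doses, GR normalized to time-zero plates and DMSO-only controls.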

Row | Cell Line | GR50, 72 h (YKL-5-124 [1]) [µM] | GR50, 72 h (Bleomycin) [µM] | GR50, 72 h (FMF-03-145-1) [µM] | GR50, 72 h (Topotecan) [µM] | GR50, 72 h (Etoposide) [µM] | GR50, 72 h [2] [µM] | GR50, 72 h (Cisplatin) [µM] | increase in dead-cell fraction (YKL-5-124 [3]; 0.001 µM) | increase in dead-cell fraction (YKL-5-124 [3]; 0.003162 µM) | increase in dead-cell fraction (YKL-5-124 [3]; 0.01 µM) | increase in dead-cell fraction (YKL-5-124 [3]; 0.03162 µM) | increase in dead-cell fraction (YKL-5-124 [3]; 0.1 µM) | increase in dead-cell fraction (YKL-5-124 [3]; 0.3162 µM) | increase in dead-cell fraction (YKL-5-124 [3]; 1 µM) | increase in dead-cell fraction (YKL-5-124 [3]; 3.162 µM) | increase in dead-cell fraction (YKL-5-124 [3]; 10 µM) | increase in dead-cell fraction (THZ531; 0.0001 µM) | increase in dead-cell fraction (THZ531; 0.0003162 µM) | increase in dead-cell fraction (THZ531; 0.001 µM) | increase in dead-cell fraction (THZ531; 0.003162 µM) | increase in dead-cell fraction (THZ531; 0.01 µM) | increase in dead-cell fraction (THZ531; 0.03162 µM) | increase in dead-cell fraction (THZ531; 0.1 µM) | increase in dead-cell fraction (THZ531; 0.3162 µM) | increase in dead-cell fraction (THZ531; 1 µM) | GR50, 72 h (Everolimus) [µM]
1 | MDAMB453 | < 0.001 | 1.31 | 0.00648 | 0.00669 | 0.383 | 0.0005 | 3.4 | 0.007 | 0.013 | 0.0243 | 0.0344 | 0.0489 | 0.033 | 0.0346 | 0.0296 | 0.275 | 0.0012 | 0.0037 | 0.0069 | 0.0027 | 0.0057 | 0.0394 | 0.16 | 0.187 | 0.157 | 
2 | SUM159 | < 0.001 | 0.262 | 0.00548 | 0.0182 | 0.398 | 0.000711 | 4.32 | 0.08 | 0.19 | 0.247 | 0.231 | 0.221 | 0.273 | 0.246 | 0.332 | 0.436 | 0.0035 | -0.0023 | -0.002 | -0.003 | 0.0062 | -0.0033 | -0.0055 | -0.0016 | 0.0161 | > 10
3 | SKBR3 | < 0.001 | 1.05 | 0.00508 | 0.0165 | 0.398 | 0.000441 | 5.11 | 0.0064 | 0.0231 | 0.0496 | 0.0434 | 0.0537 | 0.0626 | 0.0336 | 0.0844 | 0.316 | 0.0012 | 0.0021 | 0.0015 | -0.0089 | -0.0005 | 0.053 | 0.155 | 0.175 | 0.338 | < 0.001
4 | MCF12A | 0.0013 |  | 0.00914 |  |  | 0.000725 |  | 0.0376 | 0.0894 | 0.136 | 0.155 | 0.184 | 0.177 | 0.165 | 0.164 | 0.252 | 0.0108 | 0.0023 | -0.0009 | 0.0027 | 0.0039 | 0.0089 | 0.0009 | 0.0073 | 0.332 | > 10
5 | PDX1258 | 0.00166 | 0.783 |  | 0.0135 | 0.317 | 0.000103 | 2.56 | 0.019 | 0.0602 | 0.0734 | 0.107 | 0.033 | 0.165 | 0.153 | 0.153 | 0.298 | 0.0134 | -0.0091 | -0.0052 | -0.0071 | -0.0127 | 0.0327 | 0.239 | 0.246 | 0.27 | > 10
6 | SUM149 | < 0.001 | 0.039 | 0.00558 | 0.00569 | 0.127 | 0.000514 | 0.571 | 0.0758 | 0.1 | 0.103 | 0.0843 | 0.124 | 0.124 | 0.0859 | 0.172 | 0.199 | 0.0045 | -0.0031 | 0 | -0.0086 | -0.0054 | 0.0002 | 0.0001 | 0.0691 | 0.58 | > 10

From the supplement of paper PMC9663587
